In brackets after ≈: the same amount, converted by molar mass. Like-named read-outs stand apart in the source and are kept apart here. Numbered stars: 1 amine (or outer) side, 2 acyl side, 3 side chain; on linkers, the order of the positions; unused ones are H or OH. Square brackets hold non-standard residues; d marks the D form. Peptide text beside a SMILES is read from it. ξ: configuration not given here. Trp(1-(1,1-Me2-allyl)) = C=CC(C)(C)n1cc(C[C@H](N)C(=O)O)c2ccccc21; X4 = CC(C)(C1CO1)n1cc(C[C@H](N[*:1])C(=O)[*:2])c2ccccc21; Tyr(3-NO2) = N[C@@H](Cc1ccc(O)c([N+](=O)[O-])c1)C(=O)O; Gly(E-crotyl) = C/C=C/C[C@H](N)C(=O)O; NMeL = CN[C@@H](CC(C)C)C(=O)O; ξNMeL = CNC(CC(C)C)C(=O)O
Key:
[1] = tested on: M. tuberculosis strain H37Rv (ATCC 27294); assay: microbe, parasite or virus in culture; format: cell-based, Mycobacterium tuberculosis; conditions: Mycobacterium tuberculosis
[2] = tested on: M. tuberculosis 5 global clade representatives; assay: microbe, parasite or virus in culture; format: cell-based; conditions: Mycobacterium tuberculosis, read-out: MICs
[3] = tested on: M. abscessus (ATCC 19977); assay: microbe, parasite or virus in culture; format: cell-based, Mycobacterium abscessus; conditions: Mycobacteroides abscessus
M. chelonae (ATCC 35752) = assay: microbe, parasite or virus in culture; format: cell-based, Mycobacterium chelonae; conditions: Mycobacteroides chelonae, ATCC35752
M. kansasii (ATCC 12478) = assay: microbe, parasite or virus in culture; format: cell-based; conditions: Mycobacterium kansasii, ATCC12478
M. avium (ATCC 15769) = assay: microbe, parasite or virus in culture; format: cell-based; conditions: Mycobacterium avium, ATCC15769
M. bovis (ATCC 35734) = assay: microbe, parasite or virus in culture; format: cell-based; conditions: Mycobacterium tuberculosis variant bovis, ATCC35734
M. marinum (ATCC 927) = assay: microbe, parasite or virus in culture; format: cell-based; conditions: Mycobacterium marinum, ATCC927
[4] = tested on: M. smegmatis (ATCC 700084); assay: microbe, parasite or virus in culture; format: cell-based; conditions: Mycolicibacterium smegmatis, ATCC700084
[5] = tested on: J774A.1 macrophage (ATCC TIB-67); assay: Cytotoxicity in mammalian cells (resazurin); format: cell-based, murine; conditions: Mus musculus, J774.A1; J774, 72 h
[6] = tested on: Candida albicans (ATCC 10231); assay: MIC against nonmycobacteria (OD570); format: cell-based; conditions: ATCC10231, C. albicans
Description: (§1) Standard compounds used were ampicillin (AMP) and gentamicin (GEN). […] Amphotericin B (AmphB) and ketoconazole (KETO) were used as standard compounds.

[7] = tested on: Staphylococcus aureus (ATCC 29213); assay: MIC against nonmycobacteria (OD570); format: cell-based; conditions: ATCC29213, S. aureus
Description: as §1

[8] = tested on: Escherichia coli (ATCC 25922); assay: MIC against nonmycobacteria (OD570); format: cell-based; conditions: ATCC25922, E. coli
Description: as §1

Vero cell (ATCC CRL-81) = assay: cells; format: cell-based; conditions: Chlorocebus sabaeus, 72 h
[9] = ATCC19977, M. abscessus, read-out: MIC
[10] = read-out: MIC against M. tuberculosis

SMILES | MIC [1] [µM] | MIC [2] [µM] | MIC [3, 9] [µM] | MIC (M. chelonae (ATCC 35752); M. chelonae, read-out: MIC) [µM] | MIC (M. kansasii (ATCC 12478); M. kansasii, read-out: MIC) [µM] | MIC (M. avium (ATCC 15769); M. avium, read-out: MIC) [µM] | MIC (M. bovis (ATCC 35734)) [µM] | MIC (M. marinum (ATCC 927); M. marinum, read-out: MIC) [µM] | IC50 [5] [µM] | MIC [7] [µM] | MIC [8] [µM] | IC50 (Vero cell (ATCC CRL-81)) [µM] | MIC [1, 10] [µM] | further results
O=[N+]([O-])c1cn2c(n1)OC[C@@H](OCc1ccc(OC(F)(F)F)cc1)C2 [PA824, pretomanid] | 0.04 (≈ 0.0144 µg/mL) | 0.03 to 0.1 (≈ 0.0108 to 0.0359 µg/mL) | > 8 | > 8 | 4.7 (≈ 1.69 µg/mL) | > 8 | 0.1 (≈ 0.0359 µg/mL) | > 8 | – | – | – | – | – | –
CO[C@H](c1ccccc1)[C@@H]1NC(=O)[C@H](C)NC(=O)[C@H](C[C@@H](C)CO)N(C)C(=O)[C@H]([C@H](O)c2cn(C(C)(C)[C@@H]3CO3)c3ccccc23)NC(=O)[C@H]([C@H](C)C=C(C)C)NC(=O)[C@H](CC(C)C)N(C)C(=O)[C@H](C(C)C)NC1=O (stereo in doubt) [CYMA, cyclomarin A] | 0.094 (≈ 0.0981 µg/mL) | 0.012 to 0.079 (≈ 0.0125 to 0.0824 µg/mL) | > 5 | > 5 | 1.11 (≈ 1.16 µg/mL) | 4.85 (≈ 5.06 µg/mL) | < 0.02 | 0.58 (≈ 0.605 µg/mL) | 19 | > 10 | > 10 | > 50 | – | MIC ([4]; M. smegmatis, read-out: MIC): 1.6 µM (≈ 1.67 µg/mL); MIC [6]: > 10 µM
CC1(C)S[C@@H]2[C@H](NC(=O)[C@H](N)c3ccccc3)C(=O)N2[C@H]1C(=O)O [AMP, ampicillin] | – | – | – | – | – | – | – | – | – | 6.1 (≈ 2.13 µg/mL) | 16 (≈ 5.59 µg/mL) | – | – | –
CC(=O)NC[C@H]1CN(c2ccc(N3CCOCC3)c(F)c2)C(=O)O1 [LZD, linezolid] | 1.8 (≈ 0.607 µg/mL) | 0.41 to 1.6 (≈ 0.138 to 0.54 µg/mL) | – | – | – | – | – | – | – | – | – | – | – | –
COc1nc2ccc(Br)cc2cc1[C@@H](c1ccccc1)[C@@](O)(CCN(C)C)c1cccc2ccccc12 [BDQ, bedaquiline] | 0.13 (≈ 0.0722 µg/mL) | 0.017 to 0.11 (≈ 0.00944 to 0.0611 µg/mL) | 0.96 (≈ 0.533 µg/mL) | 0.46 (≈ 0.256 µg/mL) | 0.029 (≈ 0.0161 µg/mL) | 0.049 (≈ 0.0272 µg/mL) | 0.1 (≈ 0.0556 µg/mL) | 0.29 (≈ 0.161 µg/mL) | 20 | – | – | 27 | – | –
C/C=C/C[C@@H]1NC(=O)[C@H](CC(C)C)NC(=O)C(CC(C)C)N(C)C(=O)[C@H](C)NC(=O)[C@H](Cc2ccc(O)c([N+](=O)[O-])c2)NC(=O)[C@H](CC(C)C)NC(=O)[C@H](Cc2cn(C(C)(C)C3CO3)c3ccccc23)NC1=O (stereo partly shown) [IV] (cyclo(A[ξNMeL]L[Gly(E-crotyl)][X4]L[Tyr(3-NO2)])) | – | – | – | – | – | – | – | – | – | – | – | – | 0.58 (≈ 0.588 µg/mL) | –
C=CC(C)(C)n1cc(C[C@@H]2NC(=O)[C@H](C/C=C/C)NC(=O)[C@H](CC(C)C)NC(=O)C(CC(C)C)N(C)C(=O)[C@H](C)NC(=O)[C@H](Cc3ccc(O)cc3)NC(=O)[C@H](CC(C)C)N(C)C2=O)c2ccccc21 (stereo partly shown) [VI] (cyclo(A[ξNMeL]L[Gly(E-crotyl)][Trp(1-(1,1-Me2-allyl))][NMeL]Y)) | – | – | – | – | – | – | – | – | – | – | – | – | > 50 | –
CO[C@H]1/C=C/O[C@@]2(C)Oc3c(C)c(O)c4c(O)c(c(/C=N/N5CCN(C)CC5)c(O)c4c3C2=O)NC(=O)/C(C)=C\C=C\[C@H](C)[C@H](O)[C@@H](C)[C@@H](O)[C@@H](C)[C@H](OC(C)=O)[C@@H]1C [RIF, rifampin] | 0.04 (≈ 0.0329 µg/mL) | 0.01 to 0.027 (≈ 0.00823 to 0.0222 µg/mL) | – | – | – | – | < 0.02 | – | 95 | – | – | 120 | – | MIC [4]: > 120 µM; MIC ([3]; ATCC19977): > 4 µM; MIC (M. chelonae (ATCC 35752)): > 4 µM; MIC (M. kansasii (ATCC 12478)): 0.15 µM (≈ 0.123 µg/mL); MIC (M. avium (ATCC 15769)): 0.16 µM (≈ 0.132 µg/mL); MIC (M. marinum (ATCC 927)): 0.05 µM (≈ 0.0411 µg/mL)
C=CC(C)(C)n1cc(C[C@@H]2NC(=O)[C@H](C/C=C/C)NC(=O)[C@H](CC(C)C)N3CC(C)CC(C3=O)N(C)C(=O)[C@H](C)NC(=O)[C@H](Cc3ccc(O)c([N+](=O)[O-])c3)NC(=O)[C@H](CC(C)C)N(C)C2=O)c2ccccc21 (stereo partly shown) [III] | – | – | – | – | – | – | – | – | – | – | – | – | 1 (≈ 1.01 µg/mL) | –
CNC(C)C1CCC(N)C(OC2C(N)CC(N)C(OC3OCC(C)(O)C(NC)C3O)C2O)O1 (stereo not shown) [GEN, gentamicin] | – | – | – | – | – | – | – | – | – | 0.33 (≈ 0.158 µg/mL) | 0.23 (≈ 0.11 µg/mL) | – | – | –
